From patent US9186421B2, “Establishment of rhesus monkey model of autoimmunity type 1 diabetes” (West China Hospital, Sichuan University, priority 2010, dated 2015) come the findings set out here.

For one test, the system named is rhesus monkeys. The test is described as follows: Diabetes model prepared by low dose STZ induction. It is filed as in vivo, rhesus monkey. How it is done: Low dose of STZ was administered intravenously for 5 consecutive days, at a dose of 15-30 mg/kg per time; and administrated again on the 7th day and 14th day after last administration. Fasting glucose was observed once each week.
6 rhesus monkeys were used to prepare models according to the method of the present invention and 4 models were successfully prepared. […]

Test [1] concerns rhesus monkey model of autoimmune type 1 diabetes. Briefly: Insulin treatment of the rhesus monkey model of autoimmune type 1 diabetes. It is filed as in vivo. How it is done: At present, insulin injection is the main treatment method of autoimmune type 1 diabetes. Insulin was applied to the rhesus monkey model of autoimmune type 1 diabetes in this experiment. The specific way was as follows:
1. According to the habit of eating twice per day of rhesus monkeys, different types of insulin were injected twice a day (9:30 am & 17:30 pm) in different doses, applied to the autoimmune type 1 diabetes model prepared by Example 1 of the present invention: combined treatment of (1) long-acting insulin: porcine insulin (protamine zinc insulin) produced by Wanbang Company (Xuzhou, China) and (2) short-acting insulin: ordinary porcine insulin produced by Wanbang Company (Xuzhou, China).
2. Initially, low dose of insulin (0.4 U/kg) was injected subcutaneously so as to avoid the occurrence of low blood glucose.
3. The fasting and postprandial glucose levels were monitored. The administration dosage was adjusted according to the blood glucose level, finally allowing the fasting and postprandial blood glucose to be less than 10 mmol/L and glycosylated hemoglobin to be less than 6.5%.

[2] abbreviates: established model after low dose STZ i.v.
Setting [3] is: insulin s.c. twice a day, start 0.4 U/kg, dosage adjusted to blood glucose.

With `CN(N=O)C(=O)N[C@@H](C=O)[C@@H](O)[C@H](O)[C@H](O)CO` [STZ, Streptozotocin], the “fasting blood glucose, fluctuation” value with rhesus monkeys (after intravenous injection of STZ, 20 or 25 mg/kg per time, days 1-5, 12, 19) is 3.2 to 17.6 mmol/L. For the same compound, in the test with rhesus monkeys (setting [2]), the “fasting blood glucose, consistently” value is “higher than 11.1 mmol/L” and the “serum C-peptide” value is given as “less than 0.3 nM”. For the same compound, the “glucagon expression-positive cells in the islet tissue” value with rhesus monkeys (immunohistochemistry, FIG. 3B) is on record as “above 90%”. Moreover, in the test on rhesus monkeys (of 6 rhesus monkeys), the models successfully prepared turned out to be 4.
Take “Insulin: combined treatment of long-acting porcine insulin (protamine zinc insulin) and short-acting ordinary porcine insulin, Wanbang Company”: in test [1] (setting [3]), the “fasting and postprandial blood glucose” value is “less than 10 mmol/L”; the glycosylated hemoglobin entry is given as “less than 6.5%”. Further, the “therapeutic effect on autoimmune type 1 diabetes” value in test [1] (long-acting plus short-acting porcine insulin) is on record as “better therapeutic effect”.
